Consider five compounds from patent publication EP2272817A1, “PAI-1 INHIBITOR” (Institute of Medicinal Molecular Design, Inc., priority 2008, dated 2009).

Read-outs that look alike come from different tables or passages of the source.

Experiment [1] concerns the target T1, recombinant human PAI-1 (Homo sapiens, UniProt P05121). Put plainly: biochemical.
Another experiment has as its target T2, recombinant rat PAI-1 (Rattus norvegicus, UniProt P20961).
T2 sequence (P20961 24-402): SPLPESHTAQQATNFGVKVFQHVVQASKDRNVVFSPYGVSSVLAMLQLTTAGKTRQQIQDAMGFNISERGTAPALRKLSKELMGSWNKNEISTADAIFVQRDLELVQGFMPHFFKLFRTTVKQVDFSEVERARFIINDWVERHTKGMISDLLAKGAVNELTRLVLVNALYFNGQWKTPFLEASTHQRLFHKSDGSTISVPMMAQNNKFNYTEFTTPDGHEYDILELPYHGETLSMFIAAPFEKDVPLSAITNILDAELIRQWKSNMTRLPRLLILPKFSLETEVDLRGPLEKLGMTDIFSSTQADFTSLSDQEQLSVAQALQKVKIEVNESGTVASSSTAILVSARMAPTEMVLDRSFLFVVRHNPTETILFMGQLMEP
Put plainly: biochemical. As to conditions: read-out: Inhibition Rate of PAI-1 Activity (%).

The target of experiment [2] is T1, recombinant human PAI-1. Put plainly: Test Example 2: Human PAI-1 Inhibitory Activity (pH 7.4 HEPES buffer, 10 minutes incubation with two-chain tPA). The arrangement: purchased Molecular Innovations, Inc. In kind it is biochemical. As to conditions: read-out: Inhibition Rate of PAI-1 Activity (%). How it is done: 0.1 M HEPES, 0.1 M NaCl. 1 mM EDTA. 0.1 % Polyethylene glycol 8,000 (Hampton Research Corporation),
2 mM Dimethyldecylphoshine oxide [Apo-10] (Fluka Corporation)

The subject of another experiment is Rat AV Shunt Model. The experiment is described as follows: Test Example 5: Anti-thrombotic Activity (Rat AV Shunt Model), thrombus weight. The format is in vivo, Crlj: CD (SD) rats. As to conditions: orally for 4 days, male rats, n=5, average ± S.E., vehicle 72.7±2.7. Here is the method:
AV shunt model using 7-week old male Crlj: CD (SD) rats were prepared, and anti thrombotic activities when the compounds according to the present invention were administered orally were examined.
Required amount of the test compounds were weighed and suspended by adding 0.5 % CMC (carboxymethylcellulose)-Na solution little by little, and the solutions (10 mg/kg or 30 mg/kg solution) were prepared so that their final concentration became 2 mg/ml or 6 mg/ml using a graduated cylinder. 5 ml was prepared for 1 course.
To 7-week old Crlj: CD (SD) male rats, 5 ml/kg of vehicle (0.5 % CMC-Na solution) or 5 ml/kg of the administering solution of the test compound (10 mg/kg or 30 mg/kg) were administered orally for 4 days. The administration on the 4th day was carried out about 1 hour before the following perfusion start.
On the connected part where the silk thread was through, parafilm was wrapped around to avoid blood leakage. Rats were anesthetized with pentobarbital (50 mg/kg; intraperitoneally). Saline was filled in the above catheter, and each of the ends of the catheter was inserted in right carotid artery and […], respectively, and blood was circulated. 30 minutes later, the catheter was pinched with forceps to stop blood flow, and tube parts where the silk thread was through were cut and removed. The silk thread was carefully removed from the tubes, remaining wet weight was weighed after removing the liquid phase with filter paper, and further subtraction of the weight of the silk thread, gave the thrombus weight.
For the thrombus weight in each group, an average vale ± standard error (S.E.) was calculated. For the significance test between the vehicle administered group and the compound according to the present invention administered group, Dunnett's multiple comparison was carried out (significance level 5 %). For the test, the SAS System Release 8.2 (TS2MO) for Windows (Registered Trademark) (SAS Institute Inc.) and its coorperative system EXSAS Ver. 7.10 (Arm Systex Co. Ltd.) were employed.

Experiment [3] addresses T1, recombinant human PAI-1. The experiment is described as follows: Test Example 4: Human PAI-1 Inhibitory Activity (amount of PAI-1 bound to plate-coated one-chain tPA, ELISA). The format is biochemical. Details: purchased Molecular Innovations, Inc. The settings on record: human PAI-1 bound to tPA, read-out: Inhibition Rate of PAI-1 Activity (%); for inhibition at 0.3 µM: Compound Concentration 0.3µM; for inhibition at 1 µM: Compound Concentration 1µM; for inhibition at 3 µM: Compound Concentration 3µM. A digest of the protocol:
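Compound (final 0.1 to 3.0 µM, 0.2% DMSO) preincubated 15 min on ice with recombinant human PAI-1 (50 ng/ml) in phosphate buffer pH 6.6, then 60 min at room temperature on one-chain tPA-coated plates. Bound PAI-1 detected by anti-PAI-1 antibody, AP-labelled secondary and p-nitrophenyl phosphate at 405 nm; quantified against PAI-1 standard curve, inhibition relative to compound-free PAI-1.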
(An ELISA detects its analyte on a solid surface through an enzyme-linked reagent.)

[4] abbreviates: read-out: Inhibition Rate of PAI-1 Activity (%), Compound Concentration 5µM.
Where [5] appears, read: read-out: Inhibition Rate of PAI-1 Activity (%), Compound Concentration 10µM.

T1 sequence (P05121 24-402): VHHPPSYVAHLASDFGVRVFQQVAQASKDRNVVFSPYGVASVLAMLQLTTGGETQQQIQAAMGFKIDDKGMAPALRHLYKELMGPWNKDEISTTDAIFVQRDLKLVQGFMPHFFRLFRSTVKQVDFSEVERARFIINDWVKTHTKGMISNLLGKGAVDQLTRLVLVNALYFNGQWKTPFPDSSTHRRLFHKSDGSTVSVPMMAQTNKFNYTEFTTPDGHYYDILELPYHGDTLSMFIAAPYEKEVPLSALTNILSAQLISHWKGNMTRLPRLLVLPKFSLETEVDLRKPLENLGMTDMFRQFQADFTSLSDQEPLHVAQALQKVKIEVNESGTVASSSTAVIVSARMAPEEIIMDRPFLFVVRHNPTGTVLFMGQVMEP

For the compound `CC(C)(C)c1ccc(COc2ccc(-c3ccc(OC(F)(F)F)cc3)cc2CCC(=O)O)cc1` [Compound 5], the inhibition at 5 µM on recombinant human PAI-1 [1] (read-out: Inhibition Rate of PAI Activity (%), Compound Concentration 5µM) came to 87%. Also, at recombinant human PAI-1 [1] (read-out: Inhibition Rate of PAI Activity (%), Compound Concentration 10µM), the inhibition at 10 µM worked out at 95%. Besides, on recombinant rat PAI-1, the inhibition at 0.3 µM was 5%, the inhibition at 1 µM stood at 15%, the inhibition at 3 µM was 52% and the inhibition at 10 µM came to 93%. Besides, at recombinant human PAI-1 [2], the inhibition at 0.1 µM worked out at 2%, the inhibition at 0.3 µM stood at 13%, the inhibition at 1 µM was 34% and the inhibition at 3 µM worked out at 90%. Also, in the experiment on Rat AV Shunt Model (Dose 10 mg/kg/day), the “Thrombus Weight” value amounted to 57.5 ± 5.0 mg. On recombinant human PAI-1 [3], the inhibition at 0.3 µM came out at 9%, the inhibition at 1 µM was found to be 23% and the inhibition at 3 µM came to 67%.

As for `CN(C(=O)C(=O)O)c1cc(-c2ccc(OC(F)(F)F)cc2)ccc1OCc1ccc(C(C)(C)C)cc1` [Compound 17], in the experiment on Rat AV Shunt Model (Dose 30 mg/kg/day), the “Thrombus Weight” value was 60.4 ± 3.8 mg.

On to `CC(C)(C)c1ccc(CN(C(=O)C(=O)O)c2ccc(-c3ccc(OC(F)(F)F)cc3)cc2)cc1` [Compound 129], for which, on recombinant human PAI-1 [1] (setting [4]), the inhibition at 5 µM was determined as 75%. Also, the inhibition at 10 µM at recombinant human PAI-1 [1] (setting [5]) came out at 95%. Also, on recombinant rat PAI-1, the inhibition at 0.3 µM stood at 2%, the inhibition at 1 µM was determined as 14%, the inhibition at 3 µM came out at 46% and the inhibition at 10 µM is 90%. Also, at recombinant human PAI-1 [2], the inhibition at 0.1 µM turned out to be 1%, the inhibition at 0.3 µM was 3%, the inhibition at 1 µM stood at 19% and the inhibition at 3 µM was found to be 86%. In addition, the “Thrombus Weight” value with Rat AV Shunt Model (Dose 10 mg/kg/day) is 56.7 ± 3.8 mg. Also, at recombinant human PAI-1 [3], the inhibition at 0.3 µM was 5%, the inhibition at 1 µM came to 15% and the inhibition at 3 µM came out at 19%.

For the compound `CCCCC(c1ccc(C(C)(C)C)cc1)N(C(=O)C(=O)O)c1ccc(-c2ccc(OC(F)(F)F)cc2)cc1` (stereo not drawn) [Compound 221], the inhibition at 5 µM at recombinant human PAI-1 [1] (setting [4]) came out at 80%. Also, the inhibition at 10 µM on recombinant human PAI-1 [1] (setting [5]) was found to be 86%. At recombinant rat PAI-1, the inhibition at 0.3 µM turned out to be 10%, the inhibition at 1 µM is 37% and the inhibition at 3 µM was 89%. On recombinant human PAI-1 [2], the inhibition at 0.1 µM turned out to be 0%, the inhibition at 0.3 µM stood at 6%, the inhibition at 1 µM turned out to be 55% and the inhibition at 3 µM is more than 99%. Moreover, on recombinant human PAI-1 [3], the inhibition at 0.3 µM is 0%, the inhibition at 1 µM was determined as 13% and the inhibition at 3 µM was 38%.

Take `CCCCCOc1ccc(-c2ccc(OC(F)(F)F)cc2)cc1N(CCCCc1ccccc1)C(=O)C(=O)O` [Compound 226]: the inhibition at 5 µM at recombinant human PAI-1 [1] (setting [4]) is 85%. The inhibition at 10 µM at recombinant human PAI-1 [1] (setting [5]) stood at 92%. Also, on recombinant rat PAI-1, the inhibition at 0.3 µM came out at 9%, the inhibition at 1 µM came to 49%, the inhibition at 3 µM was found to be 92% and the inhibition at 10 µM is more than 99%. In addition, at recombinant human PAI-1 [2], the inhibition at 0.1 µM was 0%, the inhibition at 0.3 µM is 17%, the inhibition at 1 µM turned out to be 89% and the inhibition at 3 µM was 99%. For the same compound, on recombinant human PAI-1 [3], the inhibition at 0.3 µM came to 11%, the inhibition at 1 µM was 26% and the inhibition at 3 µM turned out to be 65%.
